According to US10004732B2 (Novartis AG, priority 2014, dated 2018):

Legend:
PI 3-kinase gamma [1] = target: T1, PI 3-kinase gamma (Homo sapiens, UniProt P48736); experiment: TR-FRET Adapta assay, assay E; type: biochemical; settings: read-out: Assay E PI3Kγ IC50
PI 3-kinase gamma [2] = target: T1, PI 3-kinase gamma; experiment: Cellular U937 AKT assay K2 (HTRF); type: cell-based; settings: U937 cells, K2 format; read-out: Assay K2 PI3Kγ IC50
Procedure: In assays K1 and K2, the compounds were tested for their ability to inhibit the production of phosphorylated AKT (Protein Kinase B) generated in a PI 3-kinase gamma isoform-dependent process in a U937 human cell line.
Cellular U937 AKT Assay for PI 3-Kinase Gamma (K2)
U937 cells are split every 3-4 days: 5×10^6 cells/flask (175 cm^2) in 40 ml.
Semi-automated preparation of cell lysates: Cells were resuspended in HBSS, seeded (200′000 cells/well/60 μl) into a 384-well plate and incubated in a humidified 37° C., 5% CO2 incubator for 1.5 hours. The compounds were diluted with HBSS and 40 μl were added to the starved cells (except for wells 24 I-P). […] The cells were then incubated for 30 minutes at 37° C. and 5% CO2. Stimulation occurred during 3 minutes by addition of 20 μl MIP1α (final 10 ng/ml, diluted in HBSS) in the incubator. Wells 24 A-H were only stimulated with HBSS.
The stimulation was then stopped by putting the cell plates on ice (filled with cold water). The cells were then centrifuged at 1200 rpm and 4° C. for 3 minutes.
80 μl of supernatant was removed. The cells were again centrifuged at 1200 rpm and 4° C. for 3 minutes. The supernatant was then removed by turning plates upside down and 30 μl of lysis buffer were added. The plate was incubated at room temperature for 30 minutes under shaking. 16 μl were then transferred to a ProxiPlate Plus 384-well. 4 μl of the master mix (each conjugate diluted 1:20 with detection reagent) were added to each well and the plate was kept in the dark at room temperature for 4 hours.

Vps34 = Vps34 (Homo sapiens, UniProt Q8NEB9); experiment: Kinase Glo Luminescent Kinase Assay (Kglo), assay C; type: biochemical; settings: read-out: Assay C VPS34 IC50
PI 3-kinase gamma [3] = target: T1, PI 3-kinase gamma; experiment: Cellular U937 AKT assay K1 (MSD); type: cell-based; settings: U937 cells, K1 format; read-out: Assay K1 PI3Kγ IC50
PI 3-kinase beta [4] = target: T2, PI 3-kinase beta (Homo sapiens, UniProt P42338); experiment: Kinase Glo Luminescent Kinase Assay (Kglo), assay B; type: biochemical; settings: read-out: Assay B PI3Kβ IC50
Target sequence in this assay (P42338 whole entry): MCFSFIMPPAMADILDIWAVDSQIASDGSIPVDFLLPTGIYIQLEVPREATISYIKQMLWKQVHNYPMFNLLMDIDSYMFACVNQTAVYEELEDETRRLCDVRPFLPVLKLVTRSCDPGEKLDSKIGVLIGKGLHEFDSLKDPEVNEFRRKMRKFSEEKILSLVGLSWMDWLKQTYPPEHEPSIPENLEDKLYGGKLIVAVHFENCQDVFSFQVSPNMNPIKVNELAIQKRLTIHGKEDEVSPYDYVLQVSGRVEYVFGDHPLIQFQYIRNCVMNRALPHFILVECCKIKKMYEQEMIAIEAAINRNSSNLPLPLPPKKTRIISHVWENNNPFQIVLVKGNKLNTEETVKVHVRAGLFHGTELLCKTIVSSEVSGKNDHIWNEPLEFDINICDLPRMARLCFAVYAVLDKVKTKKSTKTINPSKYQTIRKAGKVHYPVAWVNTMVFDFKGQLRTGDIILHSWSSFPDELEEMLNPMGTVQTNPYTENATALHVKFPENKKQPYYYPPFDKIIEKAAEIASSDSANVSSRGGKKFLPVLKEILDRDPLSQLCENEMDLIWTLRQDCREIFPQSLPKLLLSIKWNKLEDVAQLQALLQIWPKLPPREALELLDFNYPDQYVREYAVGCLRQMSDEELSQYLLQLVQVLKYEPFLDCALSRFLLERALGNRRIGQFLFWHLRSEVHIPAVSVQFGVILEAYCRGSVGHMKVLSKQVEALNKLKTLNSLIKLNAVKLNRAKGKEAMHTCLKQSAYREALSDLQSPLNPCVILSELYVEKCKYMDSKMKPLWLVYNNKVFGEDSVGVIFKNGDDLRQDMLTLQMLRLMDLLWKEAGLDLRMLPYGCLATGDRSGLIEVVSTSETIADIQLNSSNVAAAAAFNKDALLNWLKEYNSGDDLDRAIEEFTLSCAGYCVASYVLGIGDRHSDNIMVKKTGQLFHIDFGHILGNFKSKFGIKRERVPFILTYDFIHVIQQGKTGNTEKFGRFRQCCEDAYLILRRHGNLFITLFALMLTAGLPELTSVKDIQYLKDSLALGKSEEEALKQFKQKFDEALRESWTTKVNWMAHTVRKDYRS
Target sequence in this assay (P27986 461-568 partner): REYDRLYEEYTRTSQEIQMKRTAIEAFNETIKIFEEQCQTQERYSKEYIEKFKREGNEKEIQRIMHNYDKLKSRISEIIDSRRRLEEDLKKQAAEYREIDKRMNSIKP

mTOR = mTOR (Homo sapiens, UniProt P42345); experiment: Lanthascreen kinase binding assay, assay G; settings: read-out: Assay G mTOR IC50
Procedure: Lanthascreen™ Kinase Binding Assay for mTOR (G)
Binding of an inhibitor to the kinase competes for binding with the tracer, resulting in a loss of FRET.
50 nL of compound dilutions were dispensed onto white 384-well small volume polystyrene plate.

PI 3-kinase delta [5] = target: T3, PI 3-kinase delta (Homo sapiens, UniProt O00329); experiment: TR-FRET Adapta assay, assay F; settings: read-out: Assay F PI3Kδ IC50
[6] = Microsomal clearance assay (M); settings: intrinsic clearance in rat liver microsomes
Procedure: The experiments were performed in 96-well glass plates at 37° C. on an automated Tecan EVO platform. Test compounds at a concentration of 10 mM in pure DMSO were diluted 1:1000 in water to 10 μM. […] Reactions were initiated by the addition of 150 μL of a cofactor solution containing 2 mM NADPH.

PI 3-kinase alpha [7] = target: T4, PI 3-kinase alpha (Homo sapiens, UniProt P42336); experiment: Kinase Glo Luminescent Kinase Assay (Kglo), assay A; type: biochemical; settings: read-out: Assay A PI3Kα IC50
Target sequence in this assay (P42336 whole entry): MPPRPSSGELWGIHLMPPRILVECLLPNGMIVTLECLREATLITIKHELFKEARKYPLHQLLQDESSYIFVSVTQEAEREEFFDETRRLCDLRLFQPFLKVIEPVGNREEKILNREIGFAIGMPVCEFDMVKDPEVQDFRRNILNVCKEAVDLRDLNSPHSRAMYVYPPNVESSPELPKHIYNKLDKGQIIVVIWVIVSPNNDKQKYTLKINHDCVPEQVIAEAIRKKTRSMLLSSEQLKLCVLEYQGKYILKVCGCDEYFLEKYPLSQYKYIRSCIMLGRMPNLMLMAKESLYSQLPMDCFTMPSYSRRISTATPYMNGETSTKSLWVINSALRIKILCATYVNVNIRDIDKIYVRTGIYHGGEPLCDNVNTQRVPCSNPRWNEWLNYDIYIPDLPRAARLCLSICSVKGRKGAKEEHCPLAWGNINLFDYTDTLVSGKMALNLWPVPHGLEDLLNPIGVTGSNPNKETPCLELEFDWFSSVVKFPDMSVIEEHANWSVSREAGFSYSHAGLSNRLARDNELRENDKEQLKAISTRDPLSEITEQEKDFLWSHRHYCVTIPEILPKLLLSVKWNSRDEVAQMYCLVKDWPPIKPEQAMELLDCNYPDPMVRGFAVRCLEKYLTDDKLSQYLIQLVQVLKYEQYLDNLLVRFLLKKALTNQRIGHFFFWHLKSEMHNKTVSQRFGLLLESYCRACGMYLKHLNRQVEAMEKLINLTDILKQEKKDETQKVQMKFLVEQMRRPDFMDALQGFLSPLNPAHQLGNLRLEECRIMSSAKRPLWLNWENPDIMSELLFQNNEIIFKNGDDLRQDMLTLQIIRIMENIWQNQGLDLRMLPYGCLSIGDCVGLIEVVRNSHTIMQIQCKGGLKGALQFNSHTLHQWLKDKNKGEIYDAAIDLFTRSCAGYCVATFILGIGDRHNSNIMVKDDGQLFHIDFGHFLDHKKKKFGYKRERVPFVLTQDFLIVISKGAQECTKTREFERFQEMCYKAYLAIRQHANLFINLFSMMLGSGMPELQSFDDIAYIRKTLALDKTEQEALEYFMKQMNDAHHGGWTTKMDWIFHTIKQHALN
Procedure: Kinase Glo Luminescent Kinase Assay (Kglo) for Pb 3-Kinase Alpha (A), Pb 3-Kinase Beta (B), Vps34 (C), Pb 4-Kinase Beta (D)
The Kinase Glo Luminescent Kinase Assay (Promega, Madison/Wis., USA) is a homogeneous HTS method of measuring kinase activity by quantifying the amount of ATP remaining in solution following a kinase reaction.
L-α-phosphatidylinositol (PI), provided as 10 mg/ml solution in methanol, was transferred into a glass tube and dried under a nitrogen beam. It was then resuspended in 3% OctylGlucoside (1-0-n-octyl-beta-D-glucopyranoside) by vortexing and stored at 4° C. 5 μL of a mix of PI/OctylGlucoside with the PI 3-kinase alpha and PI 3-kinase beta subtypes, or Vps34 or PI 4-kinase beta were added. Kinase reactions were started by the addition of 5 μl of an ATP-mix containing in a final volume 10 μL 10 mM TRIS-HCl pH 7.5, 3 mM MgCl2, 50 mM NaCl, 0.05% CHAPS, 1 mM DTT and 1 μM ATP at room temperature.
All fits were performed with the program XLfit4 (ID Business Solutions, Guildford, UK).

PI 4-kinase beta = PI 4-kinase beta (Homo sapiens, UniProt Q9UBF8); experiment: Kinase Glo Luminescent Kinase Assay (Kglo), assay D; type: biochemical; settings: read-out: Assay D PI4Kβ IC50
PI 3-kinase beta [8] = target: T2, PI 3-kinase beta; experiment: Cellular assay I1, p-Akt (S473) in Rat-1 cells, Surefire format; type: cell-based; settings: non-asterisked data: version I1 (Surefire format), Rat-1 cells; read-out: Assay I PI3Kβ IC50
Target sequence in this assay (P42338 whole entry): as the sequence (P42338 whole entry) above
Target sequence in this assay (Q63787 whole entry partner): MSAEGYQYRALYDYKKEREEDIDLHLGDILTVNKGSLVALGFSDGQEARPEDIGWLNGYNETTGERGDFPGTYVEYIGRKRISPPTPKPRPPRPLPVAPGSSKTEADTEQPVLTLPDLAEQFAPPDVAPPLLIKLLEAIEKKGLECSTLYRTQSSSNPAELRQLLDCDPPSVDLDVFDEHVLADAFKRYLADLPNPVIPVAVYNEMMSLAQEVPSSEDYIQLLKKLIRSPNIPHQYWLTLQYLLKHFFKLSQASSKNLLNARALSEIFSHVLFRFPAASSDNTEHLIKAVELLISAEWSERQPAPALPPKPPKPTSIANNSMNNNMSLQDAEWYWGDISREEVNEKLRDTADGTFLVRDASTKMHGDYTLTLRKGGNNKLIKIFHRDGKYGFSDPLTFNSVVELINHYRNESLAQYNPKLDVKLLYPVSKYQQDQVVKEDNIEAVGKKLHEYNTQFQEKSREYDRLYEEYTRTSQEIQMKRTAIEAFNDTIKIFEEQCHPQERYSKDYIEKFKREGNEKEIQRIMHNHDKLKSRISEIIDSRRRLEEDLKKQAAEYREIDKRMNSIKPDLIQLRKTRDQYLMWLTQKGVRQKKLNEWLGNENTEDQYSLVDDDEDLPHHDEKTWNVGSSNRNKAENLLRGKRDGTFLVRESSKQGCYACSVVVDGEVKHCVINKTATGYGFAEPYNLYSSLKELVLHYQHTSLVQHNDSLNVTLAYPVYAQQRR
Source text: Cellular Assays for PI 3-Kinase Alpha (H1), Beta (I1) and Delta (J1): Surefire Format
AlphaScreen (Amplified Luminescent Proximity Homogeneous Assay, ALPHA, Perkin Elmer) is a non-radioactive bead-based proximity assay technology to study biomolecular interactions in a homogenous microtiter plate format. The brand name SureFire denotes AlphaScreen assays that are adapted to quantify the phosphorylation of endogenous cellular proteins in cell lysates, by using matched antibody pairs, which consist of an anti-phospho-kinase and an anti-kinase antibody. The assay allows characterization of kinase signaling in cells as well as measurement of kinase inhibitor effects.
Using Rat-1 cells stably expressing myr-HA-tagged versions of the human PI3Kdelta, PI3Kalpha, or PI3Kbeta p110 catalytic subunit isoforms, the assay was developed as a two-plate protocol in a 384-well format.
For compound testing, the cells were seeded at a density of 4000 (Rat-1_PI3Kdelta), 7500 (Rat-1_PI3Kalpha), or 6200 (Rat-1_PI3Kbeta) cells in 20 μl complete growth medium into cell culture treated 384-well plates and were grown at 37° C./5% CO2/90% humidity for 24 h. Shortly before compound transfer, the complete medium was removed, 30 μl assay buffer (DMEM high glucose, 1×MEM NEAA, 10 mM HEPES, 2 mM L-glutamine, 0.1% (w/v) BSA) was added and 10 μl of the compound predilutions were transferred to the cells.

PI 3-kinase delta [9] = target: T3, PI 3-kinase delta; experiment: Cellular assay J1, p-Akt (S473) in Rat-1 cells, Surefire format; type: cell-based; settings: non-asterisked data: version J1 (Surefire format), Rat-1 cells; read-out: Assay J PI3Kδ IC50
PI 3-kinase alpha [10] = target: T4, PI 3-kinase alpha; experiment: Cellular assay H1, p-Akt (S473) in Rat-1 cells, Surefire format; type: cell-based; settings: non-asterisked data: version H1 (Surefire format), Rat-1 cells; read-out: Assay H PI3Kα IC50
Target sequence in this assay (P42336 whole entry): as the sequence (P42336 whole entry) above
Target sequence in this assay (Q63787 whole entry partner): as the sequence (Q63787 whole entry partner) above

[11] = tested on: IL-8-induced neutrophil shape change in human whole blood; experiment: Whole blood neutrophil shape change assay (L); type: cell-based; settings: Homo sapiens, Neutrophil, IL-8, human whole blood, read-out: Assay L WBSC IC50

Chain of Vps34 (Q8NEB9 whole entry, species assumed): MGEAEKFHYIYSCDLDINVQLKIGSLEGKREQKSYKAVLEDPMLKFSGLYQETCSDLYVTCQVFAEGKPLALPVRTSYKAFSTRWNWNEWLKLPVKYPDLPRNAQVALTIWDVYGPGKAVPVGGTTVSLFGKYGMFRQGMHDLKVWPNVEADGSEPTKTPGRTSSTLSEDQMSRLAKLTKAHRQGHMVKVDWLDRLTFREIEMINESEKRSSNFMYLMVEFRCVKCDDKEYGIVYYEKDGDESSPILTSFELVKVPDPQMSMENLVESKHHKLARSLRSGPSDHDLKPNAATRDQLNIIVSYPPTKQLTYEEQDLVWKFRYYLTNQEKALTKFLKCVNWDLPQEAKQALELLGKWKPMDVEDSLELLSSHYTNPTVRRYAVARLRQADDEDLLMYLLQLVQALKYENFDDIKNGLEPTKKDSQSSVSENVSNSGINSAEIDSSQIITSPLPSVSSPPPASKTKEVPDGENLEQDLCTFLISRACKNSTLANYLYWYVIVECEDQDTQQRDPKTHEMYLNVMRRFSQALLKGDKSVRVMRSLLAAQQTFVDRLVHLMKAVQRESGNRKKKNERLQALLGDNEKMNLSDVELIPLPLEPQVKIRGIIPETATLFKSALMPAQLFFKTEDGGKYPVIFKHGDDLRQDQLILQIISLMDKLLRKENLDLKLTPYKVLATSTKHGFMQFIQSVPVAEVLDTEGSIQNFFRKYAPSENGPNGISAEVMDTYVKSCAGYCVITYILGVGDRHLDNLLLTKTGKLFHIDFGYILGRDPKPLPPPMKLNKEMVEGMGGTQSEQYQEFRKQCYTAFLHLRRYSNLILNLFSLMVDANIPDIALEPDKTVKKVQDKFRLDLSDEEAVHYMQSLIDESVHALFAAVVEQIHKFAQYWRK
Chain of PI 4-kinase beta (Q9UBF8 whole entry): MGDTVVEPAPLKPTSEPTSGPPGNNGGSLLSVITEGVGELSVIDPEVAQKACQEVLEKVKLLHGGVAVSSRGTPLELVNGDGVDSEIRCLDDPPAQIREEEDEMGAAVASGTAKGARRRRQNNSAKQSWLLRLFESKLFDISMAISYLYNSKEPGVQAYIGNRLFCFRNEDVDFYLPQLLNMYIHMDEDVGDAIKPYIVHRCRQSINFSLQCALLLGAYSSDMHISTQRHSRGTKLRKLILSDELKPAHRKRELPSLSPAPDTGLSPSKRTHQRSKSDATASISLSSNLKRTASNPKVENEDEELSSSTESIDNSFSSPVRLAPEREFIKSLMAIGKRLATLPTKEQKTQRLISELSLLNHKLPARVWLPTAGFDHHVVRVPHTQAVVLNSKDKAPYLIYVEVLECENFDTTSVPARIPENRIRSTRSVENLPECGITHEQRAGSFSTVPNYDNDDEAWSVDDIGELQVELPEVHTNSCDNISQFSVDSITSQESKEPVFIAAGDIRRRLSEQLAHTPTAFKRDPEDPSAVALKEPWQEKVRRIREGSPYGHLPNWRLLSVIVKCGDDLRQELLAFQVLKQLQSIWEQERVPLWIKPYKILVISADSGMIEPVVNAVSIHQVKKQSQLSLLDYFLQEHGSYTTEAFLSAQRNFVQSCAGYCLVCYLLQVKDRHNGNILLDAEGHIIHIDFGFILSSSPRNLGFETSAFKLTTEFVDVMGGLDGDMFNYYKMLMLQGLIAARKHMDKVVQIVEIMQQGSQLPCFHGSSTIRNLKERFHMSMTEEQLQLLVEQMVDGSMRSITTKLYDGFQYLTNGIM

SMILES | IC50 (PI 3-kinase gamma [1]) | IC50 (PI 3-kinase gamma [2]) | IC50 (Vps34) | IC50 (PI 3-kinase gamma [3]) | IC50 (PI 3-kinase beta [4]) | IC50 (mTOR) | IC50 (PI 3-kinase delta [5]) | Assay M RLM CI(int) [6] | IC50 (PI 3-kinase alpha [7]) | IC50 (PI 4-kinase beta) | IC50 (PI 3-kinase beta [8]) | IC50 (PI 3-kinase delta [9]) | IC50 (PI 3-kinase alpha [10]) | IC50 [11]
Cc1ccc(S(=O)(=O)NCC(C)(C)O)cc1-c1cnc(N)c(-c2ccoc2)n1 [Example 39, 3-(5-Amino-6-(furan-3-yl)pyrazin-2-yl)-N-(2-hydroxy-2-methylpropyl)-4-methylbenzenesulfonamide] | 67 nM | 999 nM | > 9550 nM | 192 nM | 3950 nM | > 9550 nM | 1070 nM | 88 µL/min/mg | 790 nM | 7050 nM |  |  |  | 
Cc1cc(-c2nc(-c3cc(S(=O)(=O)NC[C@@H]4CCNC4)ccc3C)cnc2N)ccn1 [Example 129.35, (R)-3-(5-amino-6-(2-methylpyridin-4-yl)pyrazin-2-yl)-4-methyl-N-(pyrrolidin-3-ylmethyl)benzenesulfonamide] | 89 nM | > 10000 nM | > 9100 nM |  | > 9100 nM | > 9100 nM | 1200 nM |  | 2100 nM | > 9100 nM |  |  |  | 
Cc1ccc(S(=O)(=O)N2CC(F)(F)C2)cc1-c1cnc(N)c(-n2cncn2)n1 [Example 127.4] | 260 nM | 1490 nM | > 9550 nM | 1970 nM | 6550 nM | > 9550 nM | 2500 nM | 85 µL/min/mg | 2550 nM | 4200 nM |  |  |  | 
CCN1CCC[C@H]1CNS(=O)(=O)c1ccc(C)c(-c2cnc(N)c(-c3cn(C)nc3C)n2)c1 [Example 128.1, (S)-3-(5-Amino-6-(1,3-dimethyl-1H-pyrazol-4-yl)pyrazin-2-yl)-N-((1-ethylpyrrolidin-2-yl)methyl)-4-methylbenzenesulfonamide] |  | 332 nM | > 10000 nM |  | 3000 nM |  | 250 nM |  | 1000 nM | > 10000 nM | > 10000 nM | 1640 nM | > 10000 nM | 
Cc1ncc(-c2nc(-c3cc(S(=O)(=O)N4CC(CO)C4)ccc3C)cnc2N)s1 [Example 45.8, (1-((3-(5-Amino-6-(2-methylthiazol-5-yl)pyrazin-2-yl)-4-methylphenyl)sulfonyl)azetidin-3-yl)methanol] | 130 nM | 317 nM | 2000 nM |  | 590 nM |  | 320 nM | 67 µL/min/mg | 90 nM | 3300 nM |  |  |  | 
Cc1cn(-c2nc(-c3cc(S(=O)(=O)NCCCO)ccc3C)cnc2N)cn1 [Example 57, 3-(5-Amino-6-(4-methyl-1H-imidazol-1-yl)pyrazin-2-yl)-N-(3-hydroxypropyl)-4-methylbenzenesulfonamide] | 57 nM |  | > 9100 nM | 329 nM | 6480 nM | > 9100 nM | 580 nM | 17 µL/min/mg | 320 nM | > 9100 nM | > 10000 nM | > 10000 nM | > 10000 nM | 1270 nM
Cc1cc(F)c(S(=O)(=O)NCCCO)cc1-c1cnc(N)c(-c2cnn(C)c2)n1 [Example 114, 5-(5-Amino-6-(1-methyl-1H-pyrazol-4-yl)pyrazin-2-yl)-2-fluoro-N-(3-hydroxypropyl)-4-methylbenzenesulfonamide] | 44 nM |  | 7830 nM | 177 nM | 3700 nM | > 9100 nM | 1190 nM | 17 µL/min/mg | 290 nM | 5900 nM | > 3000 nM | 7990 nM | 5430 nM | 499 nM
COc1ccncc1-c1nc(-c2cc(S(=O)(=O)NCCC(C)(C)O)ccc2C)cnc1N [Example 119.2] | 50 nM |  | > 9100 nM | 333 nM | > 9100 nM | > 9100 nM | 250 nM | 101 µL/min/mg | 450 nM | > 9100 nM | 4070 nM | 2380 nM | 2740 nM | 2180 nM
Cc1cc(-c2nc(-c3cc(S(=O)(=O)NC[C@H]4CCNC4)ccc3C)cnc2N)ccn1 [Example 129.36, (S)-3-(5-amino-6-(2-methylpyridin-4-yl)pyrazin-2-yl)-4-methyl-N-(pyrrolidin-3-ylmethyl)benzenesulfonamide] | 110 nM | > 10000 nM | > 9100 nM | 6210 nM | 6900 nM | > 9100 nM | 960 nM | 15 µL/min/mg | 1300 nM | > 9100 nM | > 3000 nM |  | > 10000 nM | 
Cc1ccc(S(=O)(=O)NOCC(C)(C)O)cc1-c1cnc(N)c(-c2cn(C)nc2C)n1 [Example 125, 3-(5-Amino-6-(1,3-dimethyl-1H-pyrazol-4-yl)pyrazin-2-yl)-N-(2-hydroxy-2-methylpropoxy)-4-methylbenzenesulfonamide] | 100 nM |  | > 10000 nM | 51 nM | 6000 nM | > 10000 nM | 130 nM | 8 µL/min/mg | 280 nM | 7600 nM | 3470 nM | 230 nM | 2810 nM | 879 nM
Cc1ncc(-c2nc(-c3cc(S(=O)(=O)NCC(C)(C)CO)ccc3C)cnc2N)s1 [Example 8, 3-[5-Amino-6-(2-methyl-thiazol-5-yl)-pyrazin-2-yl]-N-(3-hydroxy-2,2-dimethyl-propyl)-4-methyl-benzenesulfonamide] | < 3 nM |  | 410 nM | 21 nM | 1520 nM | 270 nM | 20 nM | 50 µL/min/mg | 40 nM | 1960 nM | 6030 nM | 370 nM | 750 nM | 169 nM
COC1(C)CN(S(=O)(=O)c2ccc(C)c(-c3cnc(N)c(-c4cn(C)nc4C)n3)c2)C1 [Example 102, 3-(1,3-Dimethyl-1H-pyrazol-4-yl)-5-(5-(3-methoxy-3-methylazetidin-1-ylsulfonyl)-2-methylphenyl)pyrazin-2-amine] | 150 nM | 211 nM | > 10000 nM |  | 1800 nM | 2900 nM | 900 nM | 75 µL/min/mg | 550 nM | 5900 nM | 5300 nM | 1330 nM | 4530 nM | 
Cc1ccc(S(=O)(=O)NOCC(C)(C)O)cc1-c1cnc(N)c(-n2cncn2)n1 [Example 31, 3-(5-Amino-6-[1,2,4]triazol-1-yl-pyrazin-2-yl)-N-(2-hydroxy-2-methyl-propoxy)-4-methyl-benzenesulfonamide] | 27 nM |  | > 9550 nM | 40 nM | 2000 nM | 3800 nM | 120 nM | 37 µL/min/mg | 160 nM | 4400 nM | 2510 nM | 1030 nM | 1040 nM | 917 nM
Cc1cc(-c2nc(-c3cc(S(=O)(=O)NCCC(C)(C)O)ccc3C)cnc2N)ccn1 [Example 119.28] | 49 nM |  | > 9100 nM | 179 nM | 7380 nM | 6000 nM | 190 nM | 44 µL/min/mg | 230 nM | 4410 nM | > 10000 nM | 2150 nM | 1250 nM | 963 nM
Cc1ncc(-c2nc(-c3cc(S(=O)(=O)NC4CCOCC4)ccc3C)cnc2N)s1 [Example 45.3, 3-(5-Amino-6-(2-methylthiazol-5-yl)pyrazin-2-yl)-4-methyl-N-(tetrahydro-2H-pyran-4-yl)benzenesulfonamide] | 13 nM | 494 nM | 1600 nM |  | 240 nM |  | 100 nM | 78 µL/min/mg | 40 nM | 1600 nM |  |  |  | 
Cc1ccc(S(=O)(=O)NCCC(C)(C)O)cc1-c1cnc(N)c(-c2cnn(Cc3ccccn3)c2)n1 [Example 119.37] | 24 nM |  | > 9100 nM | 93 nM | 3000 nM | > 9100 nM | 40 nM | 78 µL/min/mg | 180 nM | 5300 nM | 2870 nM | 1140 nM | 3020 nM | 581 nM
